Assay results published in patent US20150315241A1, “Antibiotic Peptides” (priority 2007, published 2015).
≈ marks a conversion by molar mass, not a printed value. Read-outs that look alike come from different tables or passages of the source. Where a SMILES comes first, the peptide text is derived from it. [ ]: non-standard residue; d: D form. Arg(NO2) = N=C(NCCC[C@H](N)C(=O)O)N[N+](=O)[O-]; NMeR = CN[C@@H](CCCNC(=N)N)C(=O)O; Hyp = O=C(O)[C@@H]1C[C@@H](O)CN1; Cit = NC(=O)NCCC[C@H](N)C(=O)O; Orn = NCCC[C@H](N)C(=O)O

What was measured:
E. coli BL 21 AI = experiment: Growth inhibition assay (MIC); assay type: cell-based, Escherichia coli; conditions: 1% TSB, 37° C., 20 hrs
Method: (§1) The minimal inhibition concentrations (MIC) of the apidaecin-derived peptides and peptide-derivatives were determined by a growth inhibition assay using a serial peptide dilution in sterilized round-bottom 96-well plates (polystyrene, U-bottom, Greiner Bio-One GmbH) with a final volume of 100 μL per well. The bacteria, e.g., E. coli BL21 A1, were grown in nutrient broth (NB, Carl Roth GmbH+Co. KG, Karlsruhe, Germany) at 37° C. over night. To each well of the 96-well plate, 50 μL of the overnight culture adjusted to 5×10^6 CFU/mL in 1% TSB were added. Lyophilized peptides and peptidomimetics were dissolved in 1% TSB (tryptic soy broth) or water to give a final concentration of 250 μg/mL. Fifty μL of the peptide or peptidomimetics solution were added to the first well of a row on the plate and mixed. Fifty μL of the first well containing the peptide solution were transferred to the second well, mixed and again 50 μL transferred to the next well and so on. Thereby, a two-fold dilution series was obtained starting at 250 μg/mL in the first well down to 120 ng/mL in the 12th well of a row giving a final peptide or peptidomimetics concentration from 125 μg/mL (well 1) to 60 ng/mL (well 12). Plates were incubated at 37° C. for 20 hrs. The absorbance was measured at 595 nm using a TECAN micro plate spectrophotometer (Tecan, Germany). All peptides and peptidomimetics were measured in triplicates. Sterilized water was used as a negative control.
(§2) The bacteria strains were tested: • Eschericha coli 1103, 10233, BL 21 AI, DC 2, • Klebsiella pneumoniae 681, • Micrococcus luteus ATCC 10240, • Mycobacterium vaccae • Bactillus subtillis 347.

M. luteus ATCC 10240 = assay type: cell-based, Micrococcus luteus
Method: as §1, §2

Compound	MIC E. coli BL 21 AI (E. coli BL 21 AI) [µg/mL]	MIC M. luteus ATCC 10240 (M. luteus ATCC 10240; 1% TSB, 37° C., 20 hrs) [µg/mL]	MIC M. luteus ATCC 10240 (M. luteus ATCC 10240; ATCC 10240, 20 h) [µg/mL]
CC[C@H](C)[C@H](NC(=O)[C@H](CCCNC(=N)N)NC(=O)[C@@H]1CCCN1C(=O)[C@H](Cc1c[nH]cn1)NC(=O)[C@@H]1CCCN1C(=O)[C@@H]1CCCN1C(=O)[C@H](CCCNC(=N)N)NC(=O)[C@@H]1CCCN1C(=O)[C@H](CCCNC(N)=O)NC(=O)[C@@H]1CCCN1C(=O)[C@@H](NC(=O)[C@H](Cc1ccc(O)cc1)NC(=O)[C@@H](NC(=O)[C@@H]1CCCN1C(=O)[C@H](CCCNC(=N)N)NC(=O)[C@H](CC(N)=O)NC(=O)[C@H](CC(N)=O)NC(=O)CN)C(C)C)[C@@H](C)CC)C(N)=O [compound 89] (H-GNNRPVYIP[Cit]PRPPHPRI-NH2)	1.95 (≈ 0.913 µM)	15.63 (≈ 7.32 µM)	
CC[C@H](C)[C@H](NC(=O)[C@H](CCCNC(=N)N)NC(=O)[C@@H]1CCCN1C(=O)[C@H](Cc1c[nH]cn1)NC(=O)[C@@H]1CCCN1C(=O)[C@@H]1CCCN1C(=O)[C@H](CCCNC(=N)N)NC(=O)[C@@H]1C[C@@H](O)CN1C(=O)[C@H](CCCNC(N)=O)NC(=O)[C@@H]1CCCN1C(=O)[C@@H](NC(=O)[C@H](Cc1ccc(O)cc1)NC(=O)[C@@H](NC(=O)[C@@H]1CCCN1C(=O)[C@H](CCCNC(=N)N)NC(=O)[C@H](CC(N)=O)NC(=O)[C@H](CC(N)=O)NC(=O)CN)C(C)C)[C@@H](C)CC)C(N)=O [compound 91] (H-GNNRPVYIP[Cit][Hyp]RPPHPRI-NH2)	1.95 (≈ 0.906 µM)	7.81 (≈ 3.63 µM)	
CC[C@H](C)[C@H](NC(=O)[C@H](Cc1ccc(O)cc1)NC(=O)[C@@H](NC(=O)[C@@H]1CCCN1C(=O)[C@H](CCCNC(=N)N)NC(=O)[C@H](CC(N)=O)NC(=O)[C@H](CC(N)=O)NC(=O)[C@@H](N)CCCN)C(C)C)C(=O)N1CCC[C@H]1C(=O)N[C@@H](CCCN)C(=O)N1C[C@H](O)C[C@H]1C(=O)N[C@@H](CCCNC(=N)N)C(=O)N1CCC[C@H]1C(=O)N1CCC[C@H]1C(=O)N[C@@H](Cc1c[nH]cn1)C(=O)N1CCC[C@H]1C(=O)N[C@@H](CCCNC(=N)N)C(=O)N[C@@H](CC(C)C)C(N)=O [compound 102] (H-[Orn]NNRPVYIP[Orn][Hyp]RPPHPRL-NH2)	1.95 (≈ 0.9 µM)	1.95 (≈ 0.9 µM)	
CC[C@H](C)[C@H](NC(=O)[C@H](Cc1ccc(O)cc1)NC(=O)[C@@H](NC(=O)[C@@H]1CCCN1C(=O)[C@H](CCCNC(=N)N)NC(=O)[C@H](CC(N)=O)NC(=O)[C@H](CC(N)=O)NC(=O)[C@H](CCCN)NC(C)=O)C(C)C)C(=O)N1CCC[C@H]1C(=O)N[C@@H](CCCN)C(=O)N1C[C@H](O)C[C@H]1C(=O)N[C@@H](CCCNC(=N)N)C(=O)N1CCC[C@H]1C(=O)N1CCC[C@H]1C(=O)N[C@@H](Cc1c[nH]cn1)C(=O)N1CCC[C@H]1C(=O)N[C@@H](CCCNC(=N)N)C(=O)N[C@@H](CC(C)C)C(N)=O [compound 103] (Ac-[Orn]NNRPVYIP[Orn][Hyp]RPPHPRL-NH2)	1.95 (≈ 0.883 µM)	3.91 (≈ 1.77 µM)	
CC[C@H](C)[C@H](NC(=O)[C@H](Cc1ccc(O)cc1)NC(=O)[C@@H](NC(=O)[C@@H]1CCCN1C(=O)[C@H](CCCNC(=N)N)NC(=O)[C@H](CC(N)=O)NC(=O)[C@H](CC(N)=O)NC(=O)[C@@H](N)CCCN)C(C)C)C(=O)N1CCC[C@H]1C(=O)N[C@@H](CCCNC(=N)N)C(=O)N1CCC[C@H]1C(=O)N[C@@H](CCCNC(=N)N)C(=O)N1CCC[C@H]1C(=O)N1CCC[C@H]1C(=O)N[C@@H](Cc1c[nH]cn1)C(=O)N1CCC[C@H]1C(=O)N[C@@H](CCCNC(N)=O)C(=O)N[C@@H](CC(C)C)C(N)=O [compound 138] (H-[Orn]NNRPVYIPRPRPPHP[Cit]L-NH2)	64 (≈ 29.2 µM)		64 (≈ 29.2 µM)
CC[C@H](C)[C@H](NC(=O)[C@H](Cc1ccc(O)cc1)NC(=O)[C@@H](NC(=O)[C@@H]1CCCN1C(=O)[C@H](CCCNC(=N)N)NC(=O)[C@H](CC(N)=O)NC(=O)[C@H](CC(N)=O)NC(=O)CNC(C)=O)C(C)C)C(=O)N1CCC[C@H]1C(=O)N[C@@H](CCC(N)=O)C(=O)N1CCC[C@H]1C(=O)N[C@@H](CCCNC(=N)N)C(=O)N1CCC[C@H]1C(=O)N1CCC[C@H]1C(=O)N[C@@H](Cc1c[nH]cn1)C(=O)N1CCC[C@H]1C(=O)N[C@@H](CCCNC(N)=O)C(=O)N[C@@H](CC(C)C)C(N)=O [compound 148] (Ac-GNNRPVYIPQPRPPHP[Cit]L-NH2)	>125		>125
CC[C@H](C)[C@H](NC(=O)[C@H](Cc1ccc(O)cc1)NC(=O)[C@@H](NC(=O)[C@@H]1CCCN1C(=O)[C@H](CCCNC(=N)N)NC(=O)[C@H](CC(N)=O)NC(=O)[C@H](CC(N)=O)NC(=O)[C@H](CCCN)NC(C)=O)C(C)C)C(=O)N1CCC[C@H]1C(=O)N[C@@H](CCCNC(=N)N)C(=O)N1CCC[C@H]1C(=O)N[C@@H](CCCNC(=N)N)C(=O)N1CCC[C@H]1C(=O)N1CCC[C@H]1C(=O)N[C@@H](Cc1c[nH]cn1)C(=O)N1CCC[C@H]1C(=O)N[C@@H](CCCNC(N)=O)C(=O)N[C@@H](CC(C)C)C(N)=O [compound 150] (Ac-[Orn]NNRPVYIPRPRPPHP[Cit]L-NH2)	32 (≈ 14.3 µM)		32 (≈ 14.3 µM)
CC[C@H](C)[C@H](NC(=O)[C@H](Cc1ccc(O)cc1)NC(=O)[C@@H](NC(=O)[C@@H]1CCCN1C(=O)[C@H](CCCNC(=N)N)NC(=O)[C@H](CC(N)=O)NC(=O)[C@H](CC(N)=O)NC(=O)[C@H](CCCN)NC(C)=O)C(C)C)C(=O)N1CCC[C@H]1C(=O)N[C@@H](CCCNC(=N)N)C(=O)N1CCC[C@H]1C(=O)N[C@@H](CCCNC(=N)N)C(=O)N1CCC[C@H]1C(=O)N1CCC[C@H]1C(=O)N[C@@H](Cc1c[nH]cn1)C(=O)N1CCC[C@H]1C(=O)N[C@H](CCCNC(=N)N)C(=O)N[C@@H](CC(C)C)C(N)=O [compound 152] (Ac-[Orn]NNRPVYIPRPRPPHP[dR]L-NH2)	32 (≈ 14.3 µM)		32 (≈ 14.3 µM)
CC[C@H](C)[C@H](NC(=O)[C@H](Cc1ccc(O)cc1)NC(=O)[C@@H](NC(=O)[C@@H]1CCCN1C(=O)[C@H](CCCNC(=N)N)NC(=O)[C@H](CC(N)=O)NC(=O)[C@H](CC(N)=O)NC(=O)[C@H](CCCN)NC(C)=O)C(C)C)C(=O)N1CCC[C@H]1C(=O)N[C@@H](CCCNC(=N)N)C(=O)N1CCC[C@H]1C(=O)N[C@@H](CCCNC(=N)N)C(=O)N1CCC[C@H]1C(=O)N1CCC[C@H]1C(=O)N[C@@H](Cc1c[nH]cn1)C(=O)N1CCC[C@H]1C(=O)N(C)[C@@H](CCCNC(=N)N)C(=O)N[C@@H](CC(C)C)C(N)=O [compound 153] (Ac-[Orn]NNRPVYIPRPRPPHP[NMeR]L-NH2)	16 (≈ 7.12 µM)		32 (≈ 14.2 µM)
CC[C@H](C)[C@H](NC(=O)[C@H](Cc1ccc(O)cc1)NC(=O)[C@@H](NC(=O)[C@@H]1CCCN1C(=O)[C@H](CCCNC(=N)N)NC(=O)[C@H](CC(N)=O)NC(=O)[C@H](CC(N)=O)NC(=O)[C@H](CCCN)NC(C)=O)C(C)C)C(=O)N1CCC[C@H]1C(=O)N[C@@H](CCCNC(=N)N)C(=O)N1CCC[C@H]1C(=O)N[C@@H](CCCNC(=N)N)C(=O)N1CCC[C@H]1C(=O)N1CCC[C@H]1C(=O)N[C@@H](Cc1c[nH]cn1)C(=O)N1CCC[C@H]1C(=O)N[C@@H](CCCNC(N)=N[N+](=O)[O-])C(=O)N[C@@H](CC(C)C)C(N)=O [compound 154] (Ac-[Orn]NNRPVYIPRPRPPHP[Arg(NO2)]L-NH2)	16 (≈ 7.02 µM)		32 (≈ 14 µM)
H-GNNRPVYIAQPRPPHPAL-NH2 [compound 136]	>125		>125
H-GNNRPVYIAQPRPPHPRL-NH2 [compound 140]	>125		125
